Laboratory results from patent publication US9339471B2, “Long acting dual release product containing carbinoxamine and pseudoephedrine” (E5 PHARMA, LLC, priority 2007, dated 2016).
Read-outs that look alike come from different tables or passages of the source.

Assay: Single dose bioavailability study in the non-fasted state, 4 mg immediate release carbinoxamine maleate tablet
Type: in vivo
Parameters: Plasma concentration of carbinoxamine: unit not given here
Conditions: nonfasted; for AUC(0-t) / Cmax / MRT / Tmax / half-life / AUC: human, plasma, po, 4 mg; for AUC: read-out: AUC0-
Protocol: A single dose bioavailability study was also undertaken in the non-fasted state using 4 mg immediate release carbinoxamine maleate tablets formulated in an immediate release format. Samples were taken over a forty eight hours period after administration of the drug with heparinized tubes. Breakfast was ingested thirty minutes before administration.
FIG. 2 is a mean plasma concentration-time profile of carbinoxamine after administering the 4 mg carbinoxamine maleate immediate release tablet in the non-fasted state from time 0 to time 48 hours. Graph (A) is the linear ordinate; graph (B) is the log-linear ordinate. FIG. 3 is an overlay of mean plasma concentration-time profiles of carbinoxamine administered under nonfasted and fasted conditions from time 0 to 48 hours, as reported in Example 3. Graph (A) is an overlay in the linear ordinates for the two conditions; graph (B) is an overlay in the log-linear ordinates for the two conditions.

SMILES: CN(C)CCOC(c1ccc(Cl)cc1)c1ccccn1 (stereo not drawn) [carbinoxamine, 2-[(4-chlorophenyl)-2-pyridinylmethoxy]-N,N-dimethylethanamine (Z)-2-butenedioate (1:1)]
- AUC(0-t) (Mean): 212 ng·h/mL
- Cmax (Mean): 12.6 ng/mL
- MRT (Mean): 26.9 h
- Tmax (Mean): 2.67 h
- half-life (Mean): 19 h
- AUC (Mean): 260 ng·h/mL
- AUC(0-t) (subject 101): 175 ng·h/mL
- Cmax (subject 101): 8.11 ng/mL
- MRT (subject 101): 25.6 h
- Tmax (subject 101): 4 h
- half-life (subject 101): 17.1 h
- AUC (subject 101): 206 ng·h/mL
- AUC(0-t) (subject 102): 292 ng·h/mL
- Cmax (subject 102): 18.9 ng/mL
- MRT (subject 102): 31.7 h
- Tmax (subject 102): 2 h
- half-life (subject 102): 22.9 h
- AUC (subject 102): 178 ng·h/mL
- AUC(0-t) (subject 103): 170 ng·h/mL
- Cmax (subject 103): 10.7 ng/mL
- MRT (subject 103): 23.4 h
- Tmax (subject 103): 2 h
- half-life (subject 103): 16.9 h
- AUC (subject 103): 196 ng·h/mL
- Plasma concentration of carbinoxamine (0 h, subject 101T): blq
- Plasma concentration of carbinoxamine (0 h, subject 102T): blq
- Plasma concentration of carbinoxamine (0 h, subject 103T): blq
- Plasma concentration of carbinoxamine (0.5 h, T-Mean): 1415.00
- Plasma concentration of carbinoxamine (0.5 h, subject 101T): 1190.29
- Plasma concentration of carbinoxamine (0.5 h, subject 102T): 1371.47
- Plasma concentration of carbinoxamine (0.5 h, subject 103T): 1683.25
- Plasma concentration of carbinoxamine (1 h, T-Mean): 9391.48
- Plasma concentration of carbinoxamine (1 h, subject 101T): 5017.55
- Plasma concentration of carbinoxamine (1 h, subject 102T): 15948.51
- Plasma concentration of carbinoxamine (1 h, subject 103T): 7208.39
- Plasma concentration of carbinoxamine (2 h, T-Mean): 12274.78
- Plasma concentration of carbinoxamine (2 h, subject 101T): 7279.95
- Plasma concentration of carbinoxamine (2 h, subject 102T): 18873.34
- Plasma concentration of carbinoxamine (2 h, subject 103T): 10671.05
- Plasma concentration of carbinoxamine (3 h, T-Mean): 10596.92
- Plasma concentration of carbinoxamine (3 h, subject 101T): 7409.87
- Plasma concentration of carbinoxamine (3 h, subject 102T): 14981.55
- Plasma concentration of carbinoxamine (3 h, subject 103T): 9399.33
- Plasma concentration of carbinoxamine (4 h, T-Mean): 9957.93
- Plasma concentration of carbinoxamine (4 h, subject 101T): 8113.91
- Plasma concentration of carbinoxamine (4 h, subject 102T): 12868.20
- Plasma concentration of carbinoxamine (4 h, subject 103T): 8891.67
- Plasma concentration of carbinoxamine (5 h, T-Mean): 9064.58
- Plasma concentration of carbinoxamine (5 h, subject 101T): 7450.78
- Plasma concentration of carbinoxamine (5 h, subject 102T): 11670.11
- Plasma concentration of carbinoxamine (5 h, subject 103T): 8072.86
- Plasma concentration of carbinoxamine (6 h, T-Mean): 8311.90
- Plasma concentration of carbinoxamine (6 h, subject 101T): 7053.79
- Plasma concentration of carbinoxamine (6 h, subject 102T): 10649.47
- Plasma concentration of carbinoxamine (6 h, subject 103T): 7232.44
- Plasma concentration of carbinoxamine (8 h, T-Mean): 7184.22
- Plasma concentration of carbinoxamine (8 h, subject 101T): 6458.92
- Plasma concentration of carbinoxamine (8 h, subject 102T): 8834.94
- Plasma concentration of carbinoxamine (8 h, subject 103T): 6258.79
- Plasma concentration of carbinoxamine (12 h, T-Mean): 5363.07
- Plasma concentration of carbinoxamine (12 h, subject 101T): 4676.58
- Plasma concentration of carbinoxamine (12 h, subject 102T): 7186.93
- Plasma concentration of carbinoxamine (12 h, subject 103T): 4225.70
- Plasma concentration of carbinoxamine (24 h, T-Mean): 3869.18
- Plasma concentration of carbinoxamine (24 h, subject 101T): 3297.38
- Plasma concentration of carbinoxamine (24 h, subject 102T): 5400.86
- Plasma concentration of carbinoxamine (24 h, subject 103T): 2909.31
- Plasma concentration of carbinoxamine (36 h, T-Mean): 2453.59
- Plasma concentration of carbinoxamine (36 h, subject 101T): 2197.69
- Plasma concentration of carbinoxamine (36 h, subject 102T): 3336.26
- Plasma concentration of carbinoxamine (36 h, subject 103T): 1826.88
- Plasma concentration of carbinoxamine (48 h, T-Mean): 1650.44
- Plasma concentration of carbinoxamine (48 h, subject 101T): 1249.68
- Plasma concentration of carbinoxamine (48 h, subject 102T): 2616.93
- Plasma concentration of carbinoxamine (48 h, subject 103T): 1084.70
